Experimental data taken from PubChem BioAssay (NCI).
Several values for one entry are separate records, joined by “and”; a condition that tells them apart may be missing. Identical values can stand only once.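 Interpolation was linear, between the two tested concentrations surrounding the appropriate level; five concentrations were tested over 48 hours in 96-well plates. GI50 marks 50% less growth. Definition used: TGI = concentration required for complete inhibition of growth.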

Key:
Assay in all cases: NCI anticancer screen, dose series, 48 h
A549 NSCLC = test system: A549 NSCLC
BT-549 breast = test system: BT-549 breast
DU-145 prostate = test system: DU-145 prostate
EKVX NSCLC = test system: EKVX NSCLC
HCT-15 colon = test system: HCT-15 colon
HT29 colon = test system: HT29 colon
K-562 leukemia = test system: K-562 leukemia
M14 melanoma = test system: M14 melanoma
OVCAR-5 ovarian = test system: OVCAR-5 ovarian
SF-539 CNS = test system: SF-539 CNS
SNB-19 CNS = test system: SNB-19 CNS
SNB-75 CNS = test system: SNB-75 CNS
SR leukemia = test system: SR leukemia
SW-620 colon = test system: SW-620 colon
U251 CNS = test system: U251 CNS
UACC-62 melanoma = test system: UACC-62 melanoma

Row | Structure (SMILES) | TGI (A549 NSCLC) | TGI (BT-549 breast) | TGI (DU-145 prostate) | TGI (EKVX NSCLC) | TGI (HCT-15 colon) | TGI (HT29 colon) | TGI (K-562 leukemia) | TGI (M14 melanoma) | TGI (OVCAR-5 ovarian) | TGI (SF-539 CNS) | TGI (SNB-19 CNS) | TGI (SNB-75 CNS) | TGI (SR leukemia) | TGI (SW-620 colon) | TGI (U251 CNS) | TGI (UACC-62 melanoma) | GI50 (SF-539 CNS) | GI50 (SNB-19 CNS) | GI50 (SNB-75 CNS) | GI50 (U251 CNS)
1 | COc1ccc(/C(=N\Nc2ccccn2)c2ccccn2)cc1 | 11.1 µM | > 100 µM | > 100 µM | 13.6 µM | 12.5 µM | 14 µM | > 100 µM | 3.76 µM | 98.9 µM | 6.6 µM | > 63.9 µM | 8.01 µM | > 33.7 µM | 30.4 µM | 17.1 µM | 6.44 µM |  |  |  | 
2 | Cc1cccc2c1c(=O)c1c(O)cc(O)cc1n2C | > 100 µM | > 100 µM | > 100 µM | > 100 µM | > 100 µM | > 100 µM | > 100 µM | > 100 µM | > 100 µM | > 100 µM | > 100 µM | > 100 µM | > 100 µM | > 100 µM | > 100 µM | > 100 µM |  |  |  | 
3 | CN(CCCn1ccnc1[N+](=O)[O-])CCCn1ccnc1[N+](=O)[O-] | > 100 µM | > 100 µM | > 100 µM | > 100 µM | > 100 µM | > 100 µM | > 100 µM | > 100 µM | > 100 µM | > 100 µM |  | > 100 µM | > 100 µM | > 100 µM | > 100 µM | > 100 µM |  |  |  | 
4 | CC(=O)/C(C=Nc1c(C)n(C)n(C)c1=O)=C(/O)c1ccccc1 | > 50 µM | > 50 µM | > 50 µM | > 50 µM | > 50 µM | > 50 µM | > 50 µM | > 50 µM | > 50 µM | > 50 µM | > 50 µM |  | > 50 µM | > 50 µM | > 50 µM | > 50 µM |  |  |  | 
5 | Nc1nc(=S)n(-c2ccc(Cl)cc2)c2nc3ccccc3cc12 | > 100 µM | 67.1 µM | > 100 µM | > 100 µM | > 100 µM | > 100 µM | > 100 µM | > 100 µM | > 100 µM |  | > 100 µM | 97 µM | > 100 µM | > 100 µM | > 100 µM | > 100 µM |  |  |  | 
6 | CCCCCCCCOC(=O)c1cc([N+](=O)[O-])c(Sc2ncnc3nc[nH]c23)c([N+](=O)[O-])c1 | 27.3 µM | 25.7 µM | 18.6 µM | 26.8 µM | 20.6 µM | 4.87 µM | 7.8 µM | 26.9 µM | 13.8 µM | 5.8 µM | 32.9 µM | 9.27 µM |  | 8.31 µM | 17.3 µM | 17 µM |  |  |  | 
7 | COc1cc2c[n+](C)c3c4cc(OC)c(OC)cc4ccc3c2cc1OC | > 100 µM | > 100 µM | > 100 µM | > 100 µM | > 100 µM | > 100 µM | > 100 µM | > 100 µM | > 100 µM | > 100 µM | > 100 µM | > 100 µM and 98.9 µM |  | > 100 µM | > 100 µM | > 100 µM | 71.3 µM and 29.9 µM | 80 µM and 13.5 µM | > 100 µM and 31.6 µM | 14.3 µM and 7.05 µM
